Measurements as given in PMC8003975 (Cancers, 2021).

Experiments:
c-Met = test: Western blot of treated HNC cells; type: cell-based, human; settings: Cal27, JHU029 and JHU022 cells, 48 hr; 2% or 3% BME, 10 or 20 µg/mL M-I; vs vehicle control
Method: (§1) Figure 2 Momordicine-I inhibited c-Met signaling in HNC cells. (A) Cal27, JHU029 […] cells were treated with either 2% BME or 10 µg/mL of M-I and JHU022 cells were treated with either 3% BME or 20 µg/mL dose of M-I. Cell lysates were prepared after 48 hr of treatment and subjected to Western blot analysis using specific antibodies. Representative Western blot images for c-Met expression in Cal27, JHU029 and JHU022 cells are shown. Membrane was reprobed with the antibody for actin as an internal control. (B) Representative Western blot image for phospho-STAT3 (pSTAT3 Tyr-705) and total STAT3 expression in Cal27 and JHU029 cells with BME or M-I treatment. Membrane was reprobed by actin as an internal control. Quantitative representation of Western blot band intensities (right panel). Small bar indicates standard error (* p < 0.05; *** p < 0.001). (C) Cal27 cells were treated with 2% BME or M-I (10 μg/mL) at indicated time points. (D) Cal27 cells were treated with control siRNA or siRNA to c-Met (si-Met) for 48 hr. Cell lysates (from panels c and D) were subjected to analyze by western blot for pSTAT3 or STAT3 using specific antibody. Membranes were reprobed by actin as internal control. Quantitative representation of Western blot band intensities (right panel). Small bar indicates standard error (*** p < 0.001).
(§2) Bitter melon extract (BME) was prepared from the Chinese variety of young bitter melons (raw and green) as described previously. Briefly, BME was prepared by aqueous extraction from whole fruit without seeds using a household juicer at room temperature with subsequent centrifugation at 15000× g at 4 °C for 30 min. BME was stored at −80 °C for further analysis. Cal27 and JHU029 cells were treated with 2% BME and JHU022 cells were treated with 3% BME as described previously. The momordicine-I (>98% pure) was purchased from Chemfaces (Cat. No.: CFN92076; Hubei, China). The powder was dissolved in DMSO and added to the cells at different concentrations. Based on cytotoxicity data, Cal27 and JHU029 cells were treated with 10 µg/mL and JHU022 cells were treated with 20 µg/mL dose of M-I and incubated for 48 hr for further experiments. All the experiments were done at least in triplicate.
(§3) Lysates from control, BME or M-I treated cells and tumors were prepared using 2× SDS sample buffer and subjected to western blot analysis using specific antibodies to c-Met (1: 500, Cell Signaling Technology, CST, Denvers, MA, USA,), phospho- STAT3 (pSTAT3-Tyr-705) (1:1000, CST), total STAT3 (1:1000, CST), c-Myc (1:1000, CST), survivin (1:500, Santa Cruz Biotechnology, SBT, Dallas, TX, USA) and cyclin D1 (1: 500, SBT). HRP conjugated anti-mouse or anti-rabbit secondary antibodies were purchased from Bio-Rad (Hercules, CA, USA). The blot was reprobed with HRP conjugated β-actin antibody (1:5000; SBT) to compare protein load in each lane. Densitometry analysis was done using Image J software (NIH, Bethesda, MD, USA).

phospho-STAT3 (Tyr-705) = test: Western blot of treated HNC cells; type: cell-based, human
Method: as §1, §2, §3

total STAT3 = test: Western blot of treated HNC cells; type: cell-based, human; settings: for total STAT3 level, short term treatment: Cal27 cells, 2% BME or 10 μg/mL M-I
Method: as §1, §2, §3

[1] = Toxicity study, 5 days, body weight and serum chemistries; type: in vivo, C57Bl/6 male mice
Method: For toxicity analysis, mice (n = 3) were given 20 mg/ kg of M-I twice a day or 30 mg/kg IP dose of M-I once a day by IP injection for five days. In parallel, there were untreated control (n = 3) and BME treated group (n = 3) for comparison. Behavior and body weight of mice were monitored daily. The body weight in all the mice was stable, with no drastic changes seen in any of the mice tested. We collected blood on day six, and serum chemistries related to liver and kidney function were examined.
For toxicity study, C57Bl/6 male mice were received either 30% BME through drinking water or 20 mg/kg of M-I twice a day or 30 mg/kg of M-I once a day by IP injection for 5 days. There were three mice in each group, including untreated control. Blood was collected on day 6, and serum was prepared. Serum parameters related to hepatotoxicity (total bilirubin, alanine transaminase, aspartate transaminase, and alkaline phosphatase) and nephrotoxicity (urea and creatinine) were performed.

Cal27 xenograft = test: Tumorigenicity assay, HNC xenograft model; type: in vivo, BALB/c athymic nude mice
Method: Figure 7 Therapeutic effect of momordicine-I in Cal27 xenograft model. Cal27 cells (1.5 × 10^6) cells were injected subcutaneously into the flank of nude mice. After formation of palpable tumor, mice were randomly divided into three groups (n = 5): Control (without any treatment), BME group (30% BME through drinking water) and M-I group (30 mg/kg IP, once in a day and every day). (A) Body weight was measured in control and treated mice. (B) Tumors were measured using a slide caliper and tumor volumes were calculated. Arrow indicates starting point BME/ M-I treatment. (C,D) Control or treated tumor lysates were subjected to Western blot analysis for c-Met and c-Myc expression using specific antibodies and representative bands are shown. The blot was reprobed with an antibody to Actin for normalization. […] Small bar indicates standard error (*, p < 0.05; **, p < 0.01; *** p < 0.001).
JHU029 or Cal27 cells (1.5 × 10^6) containing 40% Matrigel were injected subcutaneously into the flank of BALB/c athymic nude mice (7–8 weeks old). When the palpable tumor was developed (>60 mm^3), mice were divided into three groups randomly, 5 mice in each group. The control group was without any treatment. The BME group received 30% (v/v) BME through drinking water. M-I group received 30 mg/kg dose of M-I once in day, every day. Body weight was monitored, and tumor size was measured using a slide caliper and volume was calculated using the formula ½ L × W^2. After animal sacrifice tumors were dissected out and snap frozen in liquid nitrogen for further analysis. All the animal experiments were carried out in accordance NIH guidelines, following a protocol approved (1017) by the Institutional Animal Care and Use Committee (IACUC) of Saint Louis University.

[2] = literature-reported biology of the tentatively identified metabolite; no reference given; cited from earlier work
[3] = Cal27 xenograft tumor lysates, Western blot, vs control

**Q.** With `CC(C)=CC(O)CC(C)[C@H]1CC[C@@]2(C)[C@@H]3[C@@H](O)C=C4[C@@H](CC[C@H](O)C4(C)C)[C@]3(C=O)CC[C@]12C` (stereo partly drawn) [M-I, (3S, 7S, 8S, 9R, 10R, 13R, 14S, 17R) 3,7-dihydroxy-17-(4-hydroxy-6-methylhept-5-en-2-yl)-4,4,13,14-tetramethyl-2,3,7,8,10,11, 12,15,16,17-decahydro-1H-cyclopenta[a]phenanthrene-9-carbaldehyde] as the molecule, how does the c-Met expression (c-Met) read?
**A.** Its c-Met expression is “significant reduction”.

**Q.** And the “phospho-STAT3 (Tyr-705) expression” value (phospho-STAT3 (Tyr-705); Cal27 and JHU029 cells, 48 hr, 2% BME or 10 µg/mL M-I)?
**A.** Its value is “significant reduction”.

**Q.** And the “pSTAT3 level, short term treatment” value (phospho-STAT3 (Tyr-705); Cal27 cells, 15 min, 2% BME or 10 μg/mL M-I)?
**A.** The value was “inhibits”.

**Q.** And the “total STAT3 level” value (total STAT3; Cal27 and JHU029 cells, 48 hr, 10 µg/mL M-I)?
**A.** Its value is “substantial reduction”.

**Q.** What about the “total STAT3 level, short term treatment” value (total STAT3; 15 min) of the same molecule?
**A.** Its value is “without affecting”.

**Q.** And the “total STAT3 level, short term treatment” value (total STAT3; 240 min)?
**A.** Its value is “inhibited”.

**Q.** And the body weight ([1]; M-I 20 mg/kg twice a day or 30 mg/kg once a day IP, or 30% BME in drinking water, five days)?
**A.** Its body weight is “stable”.

**Q.** What about the “serum chemistries (total bilirubin, alanine transaminase, aspartate transaminase, alkaline phosphatase, creatinine, urea, glucose) versus untreated control” value ([1]; blood on day six, M-I IP for five days or 30% BME in drinking water) of the same molecule?
**A.** The value was “comparable”.

**Q.** And the “c-Met expression in tumors” value (Cal27 xenograft; [3])?
**A.** Its value is “significant reduction”.

**Q.** What about the “c-Myc expression in tumors” value (Cal27 xenograft; [3]) of the same molecule?
**A.** Its value is “significant reduction”.

**Q.** And the “reduction of tumor growth” value (Cal27 xenograft; Cal27 xenograft, nude mice, M-I 30 mg/kg IP once a day or 30% BME in drinking water)?
**A.** Its value is ~ 50%.

**Q.** And the body weight (Cal27 xenograft; Cal27 xenograft, throughout the experiment)?
**A.** Its body weight is “increasing body weight”.

**Q.** What about the “Reported Biology” value [2] of the same molecule?
**A.** The value was “• stimulate insulin secretion in vitro • diabetes-associated cardiac fibrosis”.
